Structures are written as SMILES. *1 amine or outer side, *2 acyl side, *3 side chain or, on linkers, in order; H or OH if unused. Where a SMILES comes first, the peptide text is derived from it. Bridges are numbered along the chain shown (N, C = ends). [ ]: non-standard residue; d: D form. The star is where a group is joined. ξ: configuration not given here. NMeAbu(3,3-F2-piperidino) = CN[C@@H](CCN1CCCC(F)(F)C1)C(=O)O; hPhe(3-OMe,4-CONHMe) = CNC(=O)c1ccc(CC[C@H](N)C(=O)O)cc1OC; Phe(3-OMe,4-CONHMe) = CNC(=O)c1ccc(C[C@H](N)C(=O)O)cc1OC; Phe(4-COOH) = N[C@@H](Cc1ccc(C(=O)O)cc1)C(=O)O; NMePhe(3-Cl) = CN[C@@H](Cc1cccc(Cl)c1)C(=O)O; ξGln(SO2Me) = CS(=O)(=O)NC(=O)CCC(N)C(=O)O; X9 = O=C([C@@H](CN[*:1])COCCO)[*:2]; NMeF = CN[C@@H](Cc1ccccc1)C(=O)O; NMeGABA = CN(CCCC(=O)[*:2])[*:1]; NMeL = CN[C@@H](CC(C)C)C(=O)O; Butyl(3R-OH) = C[C@@H](O)CC*; NMeV = CN[C@H](C(=O)O)C(C)C; NMeAbu = CC[C@H](NC)C(=O)O; ξNMeL = CNC(CC(C)C)C(=O)O; NMeA = CN[C@@H](C)C(=O)O; Piperidide = C1CCN(*)CC1; dNMeA = CN[C@H](C)C(=O)O; NBuGly = CCCCNCC(=O)O; NPrGly = CCCNCC(=O)O; Propyl(3-OH) = OCCC*; N(OH)Me = CN(O)*; Sar = CNCC(=O)O; tBu = CC(C)(C)*

The first data set in a line: in vitro. The following applies: human, Caco-2, Caco-2.
The Papp is a coefficient for how fast a substance crosses the barrier. For the compound `CCCCN1CC(=O)N(C)[C@@H](CC(C)C)C(=O)N[C@H](C(=O)N2CCCCC2)CC(=O)N(C)[C@@H](CC(C)C)C(=O)N[C@@H](CC(C)C)C(=O)N(C)[C@@H](CC)C(=O)N(C)[C@@H](Cc2ccccc2)C(=O)NC(CCC(=O)NS(C)(=O)=O)C(=O)N(C)[C@@H](Cc2cccc(Cl)c2)C(=O)N(C)[C@@H](CC(C)C)C(=O)N[C@@H]([C@@H](C)O)C1=O` (stereo partly drawn) [pd64] ([NMeL]L[NMeAbu][NMeF][ξGln(SO2Me)][NMePhe(3-Cl)][NMeL]T[NBuGly][NMeL]D-Piperidide; lactam N-11), the Papp worked out at 0.15 ×10⁻⁶ cm/s. On to `CC(C)C[C@@H]1NC(=O)[C@H](Cc2ccccc2)N(C)C(=O)[C@H](Cc2ccccc2)N(C)C(=O)[C@H](CC(C)C)NC(=O)[C@H](CC(C)C)N(C)C(=O)CCCN(C)C(=O)C[C@@H](C(=O)N2CCCCC2)NC(=O)[C@H](C)N(C)C(=O)[C@H](CCN2CCCC(F)(F)C2)N(C)C(=O)[C@H]([C@@H](C)O)NC(=O)[C@H](CC(C)C)N(C)C1=O` [pd390] ([NMeGABA][NMeL]L[NMeF][NMeF]L[NMeL]T[NMeAbu(3,3-F2-piperidino)][NMeA]D-Piperidide; lactam N-11), for which the Papp was 2 ×10⁻⁶ cm/s.

Staying with this data set, now noted: human, Caco-2, Caco-2 (cm/sec).
With `CCCCN1CC(=O)N(C)[C@@H](CC(C)C)C(=O)N[C@@H](Cc2ccc(C(=O)N(C)O)cc2)C(=O)N(C)[C@@H](CC(C)C)C(=O)N(C)[C@@H](CC(C)C)C(=O)N[C@H](C(=O)N2CCCCC2)CC(=O)N[C@H](CC(C)C)C(=O)N(C)[C@@H](Cc2ccccc2)C(=O)N[C@@H](C(C)C)C(=O)N(C)C(CC(C)C)C(=O)N[C@@H]([C@@H](C)O)C1=O` (stereo partly drawn) [AP249] ([dL][NMeF]V[ξNMeL]T[NBuGly][NMeL][Phe(4-COOH)](N(OH)Me)[NMeL][NMeL]D-Piperidide; lactam N-11), the apparent permeability (Papp) is 0.04 ×10⁻⁶ cm/s. On the same count and under the same terms, next, `CC(C)C[C@H]1C(=O)N[C@@H]([C@@H](C)O)C(=O)N(C)[C@@H](CC(C)C)C(=O)N(C)[C@@H](CC(C)C)C(=O)N[C@H](C(=O)N2CCCCC2)CC(=O)N(C)CCCC(=O)N(C)[C@@H](C(C)C)C(=O)N[C@@H](COCC[C@@H](C)O)C(=O)N(C)[C@@H](Cc2ccccc2)C(=O)N(C)[C@@H](Cc2cccc(Cl)c2)C(=O)N[C@@H](COC(C)(C)C)C(=O)N1C` [AP110] ([NMeGABA][NMeV]S(Butyl(3R-OH))[NMeF][NMePhe(3-Cl)]S(tBu)[NMeL]T[NMeL][NMeL]D-Piperidide; lactam N-11): 0.23 ×10⁻⁶ cm/s. Still for that read-out and setting: then `CC(C)C[C@H]1C(=O)N[C@H](C(=O)N(C)[C@@H](Cc2ccccc2)C(=O)N[C@@H](C)C(=O)N2CCCCC2)CC(=O)N(C)[C@@H](C)C(=O)N[C@@H]([C@@H](C)O)C(=O)N(C)[C@@H](C)C(=O)N(C)[C@@H](CC(C)C)C(=O)N[C@@H](C(C)C)C(=O)N(C)[C@@H](Cc2ccccc2)C(=O)N[C@@H](Cc2ccccc2)C(=O)N1C` [pd212] ([NMeA]T[NMeA][NMeL]V[NMeF]F[NMeL]D[NMeF]A-Piperidide; lactam N-9), with 1.4 ×10⁻⁶ cm/s.

With `CC[C@H](C)[C@@H]1NC(=O)[C@H](CC(C)C)N(C)C(=O)CN(C)C(=O)C[C@@H](C(=O)N2CCCCC2)NC(=O)[C@H](CC(C)C)N(C)C(=O)[C@H](Cc2ccc(C(=O)NC)c(OC)c2)NC(=O)[C@H](CC(C)C)N(C)C(=O)[C@H](Cc2cccc(Cl)c2)N(C)C(=O)CN(C)C(=O)[C@H]([C@@H](C)O)NC(=O)[C@H](CC(C)C)N(C)C1=O` [AP34] ([Sar][NMeL]I[NMeL]T[Sar][NMePhe(3-Cl)][NMeL][Phe(3-OMe,4-CONHMe)][NMeL]D-Piperidide; lactam N-11), the Papp was determined as 0.2 ×10⁻⁶ cm/s. This Papp is about 7-fold lower than that of the compound before. Same read-out and setting: then `CC[C@H](C)[C@@H]1NC(=O)[C@H](CC(C)C)N(C)C(=O)CCCN(C)C(=O)C[C@@H](C(=O)N2CCCCC2)NC(=O)[C@H](CC(C)C)N(C)C(=O)[C@H](CC(C)C)N(C)C(=O)[C@H]([C@@H](C)O)NC(=O)[C@H](CC(C)C)N(C)C(=O)[C@H](COCCCO)NC(=O)[C@H](Cc2cccc(Cl)c2)N(C)C(=O)[C@H](Cc2ccccc2)N(C)C1=O` [AP92] ([NMeGABA][NMeL]I[NMeF][NMePhe(3-Cl)]S(Propyl(3-OH))[NMeL]T[NMeL][NMeL]D-Piperidide; lactam N-11), with 0.18 ×10⁻⁶ cm/s; and `CNC(=O)c1ccc(CC[C@@H]2NC(=O)[C@H](CC(C)C)N(C)C(=O)[C@H]([C@@H](C)O)NC(=O)[C@H](CC(C)C)N(C)C(=O)[C@H](CC(C)C)N(C)C(=O)[C@@H](C)N(C)C(=O)C[C@@H](C(=O)N3CCCCC3)NC(=O)[C@H](CC(C)C)N(C)C2=O)cc1OC` [AP262] ([dNMeA][NMeL][NMeL]T[NMeL][hPhe(3-OMe,4-CONHMe)][NMeL]D-Piperidide; lactam N-8), with 0.17 ×10⁻⁶ cm/s. Still for that read-out and setting: next, `CCCN1CC(=O)N(C)[C@@H](CC(C)C)C(=O)N[C@@H](CC(C)C)C(=O)N(C)[C@@H](Cc2ccccc2)C(=O)N(C)[C@@H](CC(C)C)C(=O)N[C@H](C(=O)N2CCCCC2)CC(=O)N[C@H](CC(C)C)C(=O)N(C)[C@@H](Cc2ccccc2)C(=O)NC[C@@H](COCCO)C(=O)N(C)[C@@H](CC(C)C)C(=O)N[C@@H]([C@@H](C)O)C1=O` [AP127] ([dL][NMeF][X9][NMeL]T[NPrGly][NMeL]L[NMeF][NMeL]D-Piperidide; lactam N-11): 0.3 ×10⁻⁶ cm/s.

Values taken from patent US20230096766A1, “AMINO ACID HAVING FUNCTIONAL GROUP CAPABLE OF INTERMOLECULAR HYDROGEN BONDING, PEPTIDE COMPOUND CONTAINING SAME AND METHOD FOR PRODUCTION THEREOF” (Chugai Seiyaku Kabushiki Kaisha, priority 2018, published 2023).
